Laboratory results reported in US12630600B2 (MEDIMMUNE LIMITED, priority 2022, dated 2026).
Starred links: 1 amine or outer side, 2 acyl side, 3 side chain; linkers in the order of their positions; H or OH if unused. Non-standard residues stand in square brackets, D forms with d. Residues, ends and D or L forms follow the SMILES beside them. Groups on a side chain read outwards from the residue. *: point of attachment. C18 diacid = O=C(O)CCCCCCCCCCCCCCCCC(=O)*; Dip = N[C@H](C(=O)O)C(c1ccccc1)c1ccccc1; γGlu = O=C(O)[C@H](CCC(=O)[*:2])N[*:1]; Stearoyl = CCCCCCCCCCCCCCCCCC(=O)*; αMeF = C[C@](N)(Cc1ccccc1)C(=O)O; PEG2 = NCCOCCOCCC(=O)O; AEEA = NCCOCCOCC(=O)O; Aib = CC(C)(N)C(=O)O

Legend:
[1] = test system: wildtype (WT) mice; test: Glucose change in wildtype mice; assay type: in vivo, mouse; conditions: s.c., 10 nmol/kg, somatostatin pretreatment 30 min prior to cpd
Description: […] and wildtype (WT) mice at 8-14 weeks of age were singly housed on standard chow diet (Envigo, 2918) and automatic water. They acclimated for a minimum of ˜1-2 weeks, and mice were sorted into groups (n=4-8/group) based on body weight. On day of study, mice were fasted briefly for 2 hrs prior to study start. In some studies, mice were pre-treated with octreotide (BaChem, 10 mg/kg) at 30 minutes prior to peptide injection. Glucose was measured via glucometer at various timepoints including −30 min (prior to octreotide when used in studies), 0 min (before peptide dose), 30, 60, 120, 180, 240, and 360 minutes. Since these studies are acute in nature, mice were re-used for multiple studies (no more than 3) and always allowed at least a minimum wash-out period of 1 week.

[2] = molecular target: T1, human GLP-1 receptor (hGLP-1R) (Homo sapiens, UniProt P43220); test: cAMP production (HTRF) in CHO cells expressing human GLP-1 receptor; assay type: cell-based; conditions: Table 8; % GLP-1R activity relative to GLP-1 / % GlucR activity relative to glucagon
T1 construct: expressed in transfected cells; host or cells: CHO
T1 sequence (P43220 24-463): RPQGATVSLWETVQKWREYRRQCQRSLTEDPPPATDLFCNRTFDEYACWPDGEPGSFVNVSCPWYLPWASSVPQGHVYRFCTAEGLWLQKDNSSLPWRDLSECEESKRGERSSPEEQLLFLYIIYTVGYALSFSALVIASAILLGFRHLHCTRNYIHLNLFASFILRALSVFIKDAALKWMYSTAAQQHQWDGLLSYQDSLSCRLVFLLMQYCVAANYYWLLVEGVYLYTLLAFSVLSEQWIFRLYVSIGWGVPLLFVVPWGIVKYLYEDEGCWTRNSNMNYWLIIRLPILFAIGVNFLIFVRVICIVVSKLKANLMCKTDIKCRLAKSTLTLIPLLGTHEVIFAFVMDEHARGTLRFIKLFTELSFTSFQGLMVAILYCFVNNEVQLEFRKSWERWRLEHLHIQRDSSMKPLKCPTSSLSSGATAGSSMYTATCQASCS

SMILES	WT % glucose change 120 min [1]	% Relative Potency Ratio [2]
CCCCCCCCCCCCCCCCCC(=O)N[C@@H](CCC(=O)N[C@@H](CCC(=O)NCCOCCOCCC(=O)NCCOCCOCCC(=O)NCCCC[C@H](NC(=O)[C@H](CO)NC(=O)[C@H](CC(=O)O)NC(=O)[C@H](CC(C)C)NC(=O)[C@@H](NC(=O)[C@H](CCCCN)NC(=O)[C@H](CO)NC(=O)[C@@H](NC(=O)[C@H](CC(=O)O)NC(=O)[C@H](CO)NC(=O)[C@@H](NC(=O)[C@](C)(Cc1ccccc1)NC(=O)[C@H](CO)NC(=O)CNC(=O)[C@H](CCC(N)=O)NC(=O)[C@H](CO)NC(=O)[C@@H](N)Cc1c[nH]cn1)[C@@H](C)O)C(C)C)C(c1ccccc1)c1ccccc1)C(=O)N[C@@H](C)C(=O)N[C@@H](C)C(=O)N[C@@H](CCC(N)=O)C(=O)N[C@@H](CC(=O)O)C(=O)N[C@@](C)(Cc1ccccc1)C(=O)N[C@H](C(=O)N[C@@H](CCC(=O)O)C(=O)NC(C)(C)C(=O)N[C@H](C(=O)N[C@@H](C)C(=O)N[C@@H](CC(N)=O)C(=O)N[C@H](C(N)=O)[C@@H](C)O)[C@@H](C)CC)C(C)C)C(=O)O)C(=O)O [Peptide 49] (H-HSQGS[αMeF]TSDVSK[Dip]LDSK([PEG2-PEG2-γGlu-γGlu-Stearoyl])AAQD[αMeF]VE[Aib]IANT-NH2; N-terminus assumed)	−1.2%	
CC[C@H](C)[C@H](NC(=O)[C@H](Cc1c[nH]c2ccccc12)NC(=O)[C@H](CCCCNC(=O)COCCOCCNC(=O)COCCOCCNC(=O)CC[C@H](NC(=O)CCCCCCCCCCCCCCCCC(=O)O)C(=O)O)NC(=O)[C@@H](NC(=O)[C@H](Cc1ccccc1)NC(=O)[C@H](CC(=O)O)NC(=O)[C@H](CCC(N)=O)NC(=O)[C@H](C)NC(=O)[C@H](C)NC(=O)[C@H](CCCNC(=N)N)NC(=O)[C@H](CO)NC(=O)[C@H](CC(=O)O)NC(=O)[C@H](CC(C)C)NC(=O)[C@](C)(Cc1ccccc1)NC(=O)[C@H](CCCCN)NC(=O)[C@H](CO)NC(=O)[C@@H](NC(=O)[C@H](CC(=O)O)NC(=O)[C@H](CO)NC(=O)[C@@H](NC(=O)[C@](C)(Cc1ccccc1)NC(=O)[C@H](CO)NC(=O)CNC(=O)[C@H](Cc1c[nH]cn1)NC(=O)C(C)(C)NC(=O)[C@@H](N)Cc1c[nH]cn1)[C@@H](C)O)C(C)C)C(C)C)C(=O)N[C@@H](C)C(=O)N[C@@H](CC(N)=O)C(=O)N[C@H](C(N)=O)[C@@H](C)O [Peptide 361] (H-H[Aib]HGS[αMeF]TSDVSK[αMeF]LDSRAAQDFVK([AEEA-AEEA-γGlu-C18 diacid])WIANT-NH2)	−23.0%	1.3
